Reference: ChEMBL document CHEMBL5696441 (Nat Chem Biol, 2011)

Experiments:
[1] = target: Casein kinase I isoform epsilon (Homo sapiens) (UniProt P49674); assay: Inhibition of CSNK1E (unknown origin) assessed as remaining activity at 1 uM by Kinome scan method relative to control
[2] = test system: Tyrosine-protein kinase ABL1 (Homo sapiens), P00519 [Q252H]; assay: Inhibition of ABL1 Q252H mutant (unknown origin) assessed as remaining activity at 1 uM by Kinome scan method relative to control
[3] = target: Angiopoietin-1 receptor (Homo sapiens) (UniProt Q02763); assay: Inhibition of TIE2 (unknown origin) assessed as remaining activity at 1 uM by Kinome scan method relative to control
Chain of Angiopoietin-1 receptor (Homo sapiens) (Q02763 whole entry): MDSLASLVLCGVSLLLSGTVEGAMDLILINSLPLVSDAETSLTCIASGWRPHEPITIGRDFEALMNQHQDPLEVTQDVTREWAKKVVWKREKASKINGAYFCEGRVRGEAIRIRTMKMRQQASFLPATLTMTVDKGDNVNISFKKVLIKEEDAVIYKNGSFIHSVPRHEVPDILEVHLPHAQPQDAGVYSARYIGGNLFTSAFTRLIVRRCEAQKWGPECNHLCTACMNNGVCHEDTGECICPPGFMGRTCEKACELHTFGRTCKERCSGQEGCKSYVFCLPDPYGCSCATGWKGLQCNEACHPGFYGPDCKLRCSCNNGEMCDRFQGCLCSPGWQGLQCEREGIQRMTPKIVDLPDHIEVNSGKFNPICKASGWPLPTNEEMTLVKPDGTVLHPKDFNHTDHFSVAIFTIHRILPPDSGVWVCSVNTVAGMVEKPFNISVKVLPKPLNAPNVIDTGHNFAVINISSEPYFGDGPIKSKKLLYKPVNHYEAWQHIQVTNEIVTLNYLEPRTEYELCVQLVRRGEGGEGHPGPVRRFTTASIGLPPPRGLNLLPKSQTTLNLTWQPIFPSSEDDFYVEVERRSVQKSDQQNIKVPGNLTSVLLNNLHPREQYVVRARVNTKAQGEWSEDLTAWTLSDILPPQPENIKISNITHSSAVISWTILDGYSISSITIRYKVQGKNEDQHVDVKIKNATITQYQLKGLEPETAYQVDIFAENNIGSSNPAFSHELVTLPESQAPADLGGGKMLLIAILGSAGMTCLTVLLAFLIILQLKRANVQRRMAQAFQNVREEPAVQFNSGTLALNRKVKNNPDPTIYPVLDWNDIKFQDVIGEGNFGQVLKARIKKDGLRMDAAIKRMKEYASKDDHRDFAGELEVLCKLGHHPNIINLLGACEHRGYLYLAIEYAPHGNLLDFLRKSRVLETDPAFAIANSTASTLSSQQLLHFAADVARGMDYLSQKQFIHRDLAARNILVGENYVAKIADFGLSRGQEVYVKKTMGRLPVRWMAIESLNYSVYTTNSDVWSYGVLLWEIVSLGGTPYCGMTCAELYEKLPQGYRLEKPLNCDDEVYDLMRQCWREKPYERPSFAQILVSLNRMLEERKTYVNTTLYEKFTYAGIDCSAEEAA

[4] = target: CDK7/Cyclin H/MNAT1 (Homo sapiens) (UniProt P51946+P50613+P51948); assay: Inhibition of human CDK7/CyclinH/MAT1 assessed as residual activity at 1 uM using RBER-CHKtide as substrate in presence of 33P-ATP by ProQinase assay relative to control; format: protein-complex assay
[5] = target: Receptor-type tyrosine-protein kinase FLT3 (Homo sapiens) (UniProt P36888); assay: Inhibition of FLT3 (unknown origin) assessed as remaining activity at 1 uM by Kinome scan method relative to control
Chain of Receptor-type tyrosine-protein kinase FLT3 (Homo sapiens) (P36888 whole entry): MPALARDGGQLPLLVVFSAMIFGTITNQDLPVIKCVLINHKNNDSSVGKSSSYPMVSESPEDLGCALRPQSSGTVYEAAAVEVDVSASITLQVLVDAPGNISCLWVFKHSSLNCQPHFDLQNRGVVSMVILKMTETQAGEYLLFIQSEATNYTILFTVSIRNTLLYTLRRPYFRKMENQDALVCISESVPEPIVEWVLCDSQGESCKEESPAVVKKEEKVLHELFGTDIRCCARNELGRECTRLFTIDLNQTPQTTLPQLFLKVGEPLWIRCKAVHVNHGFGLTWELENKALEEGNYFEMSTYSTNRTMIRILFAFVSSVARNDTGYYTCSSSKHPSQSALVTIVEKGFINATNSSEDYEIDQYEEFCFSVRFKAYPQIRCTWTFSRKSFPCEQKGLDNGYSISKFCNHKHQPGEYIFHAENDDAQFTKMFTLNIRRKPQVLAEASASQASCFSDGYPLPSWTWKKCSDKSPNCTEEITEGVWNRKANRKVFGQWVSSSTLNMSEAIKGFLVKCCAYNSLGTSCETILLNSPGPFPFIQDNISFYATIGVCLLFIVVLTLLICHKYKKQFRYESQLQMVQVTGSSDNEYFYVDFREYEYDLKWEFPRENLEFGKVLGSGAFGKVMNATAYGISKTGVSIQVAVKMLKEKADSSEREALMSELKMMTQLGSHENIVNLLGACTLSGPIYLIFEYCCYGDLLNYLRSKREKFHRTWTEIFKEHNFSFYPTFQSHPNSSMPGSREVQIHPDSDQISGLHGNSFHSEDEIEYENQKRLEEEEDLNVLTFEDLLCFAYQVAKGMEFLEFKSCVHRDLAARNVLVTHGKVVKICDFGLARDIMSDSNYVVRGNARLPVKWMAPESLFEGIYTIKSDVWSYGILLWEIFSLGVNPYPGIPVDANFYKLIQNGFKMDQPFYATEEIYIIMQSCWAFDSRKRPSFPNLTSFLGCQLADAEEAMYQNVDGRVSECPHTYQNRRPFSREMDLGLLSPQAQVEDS

[6] = target: T1, TGF-beta receptor type-1 (Homo sapiens) (UniProt P36897); assay: Inhibition of human TGFBR1 assessed as residual activity at 1 uM using RBER-GSK3(14-27) as substrate in presence of 33P-ATP by ProQinase assay relative to control
T1 sequence (whole entry): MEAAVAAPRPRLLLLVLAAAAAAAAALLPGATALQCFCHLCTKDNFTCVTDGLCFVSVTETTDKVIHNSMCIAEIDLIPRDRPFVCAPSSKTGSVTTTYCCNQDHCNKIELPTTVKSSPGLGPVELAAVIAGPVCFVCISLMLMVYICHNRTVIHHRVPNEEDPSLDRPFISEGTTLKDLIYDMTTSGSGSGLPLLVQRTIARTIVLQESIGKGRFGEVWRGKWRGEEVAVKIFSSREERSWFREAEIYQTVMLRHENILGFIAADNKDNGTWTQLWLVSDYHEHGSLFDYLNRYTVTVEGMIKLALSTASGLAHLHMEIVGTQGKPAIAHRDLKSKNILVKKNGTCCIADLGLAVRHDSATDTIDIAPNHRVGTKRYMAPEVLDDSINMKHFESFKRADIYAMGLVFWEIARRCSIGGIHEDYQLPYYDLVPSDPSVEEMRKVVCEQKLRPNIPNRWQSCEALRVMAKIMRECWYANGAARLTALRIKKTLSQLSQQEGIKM

[7] = test system: Receptor-type tyrosine-protein kinase FLT3 (Homo sapiens), P36888 [UNDEFINED MUTATION]; assay: Inhibition of FLT3 ITD mutant (unknown origin) assessed as remaining activity at 1 uM by Kinome scan method relative to control
Chain of Receptor-type tyrosine-protein kinase FLT3 (Homo sapiens), P36888 [UNDEFINED MUTATION] (P36888 whole entry, looked up, change not shown): as the sequence (P36888 whole entry) above

[8] = target: Dual specificity protein kinase CLK4 (Homo sapiens) (UniProt Q9HAZ1); assay: Inhibition of human CLK4 assessed as residual activity at 1 uM using MBP as substrate in presence of 33P-ATP by ProQinase assay relative to control
Chain of Dual specificity protein kinase CLK4 (Homo sapiens) (Q9HAZ1 whole entry, looked up): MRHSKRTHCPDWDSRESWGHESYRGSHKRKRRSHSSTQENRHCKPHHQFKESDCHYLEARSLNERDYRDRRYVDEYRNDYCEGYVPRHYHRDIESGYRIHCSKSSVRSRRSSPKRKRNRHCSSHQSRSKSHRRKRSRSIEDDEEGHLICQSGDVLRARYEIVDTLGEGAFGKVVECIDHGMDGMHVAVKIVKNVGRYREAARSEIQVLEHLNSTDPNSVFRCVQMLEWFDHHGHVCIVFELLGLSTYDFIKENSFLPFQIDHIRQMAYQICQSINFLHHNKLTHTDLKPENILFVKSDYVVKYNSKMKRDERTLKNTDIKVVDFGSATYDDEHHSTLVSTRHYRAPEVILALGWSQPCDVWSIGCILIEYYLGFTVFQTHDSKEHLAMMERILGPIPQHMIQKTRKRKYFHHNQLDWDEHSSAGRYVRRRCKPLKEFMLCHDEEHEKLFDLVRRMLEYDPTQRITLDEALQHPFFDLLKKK

[9] = target: Death-associated protein kinase 1 (Homo sapiens) (UniProt P53355); assay: Inhibition of human DAPK1 assessed as residual activity at 1 uM using RBER-GSK3 as substrate in presence of 33P-ATP by ProQinase assay relative to control
[10] = target: Dual serine/threonine and tyrosine protein kinase (Homo sapiens) (UniProt Q6XUX3); assay: Inhibition of human RIPK5 assessed as residual activity at 1 uM using RBER-CHKtide as substrate in presence of 33P-ATP by ProQinase assay relative to control
Chain of Dual serine/threonine and tyrosine protein kinase (Homo sapiens) (Q6XUX3 whole entry): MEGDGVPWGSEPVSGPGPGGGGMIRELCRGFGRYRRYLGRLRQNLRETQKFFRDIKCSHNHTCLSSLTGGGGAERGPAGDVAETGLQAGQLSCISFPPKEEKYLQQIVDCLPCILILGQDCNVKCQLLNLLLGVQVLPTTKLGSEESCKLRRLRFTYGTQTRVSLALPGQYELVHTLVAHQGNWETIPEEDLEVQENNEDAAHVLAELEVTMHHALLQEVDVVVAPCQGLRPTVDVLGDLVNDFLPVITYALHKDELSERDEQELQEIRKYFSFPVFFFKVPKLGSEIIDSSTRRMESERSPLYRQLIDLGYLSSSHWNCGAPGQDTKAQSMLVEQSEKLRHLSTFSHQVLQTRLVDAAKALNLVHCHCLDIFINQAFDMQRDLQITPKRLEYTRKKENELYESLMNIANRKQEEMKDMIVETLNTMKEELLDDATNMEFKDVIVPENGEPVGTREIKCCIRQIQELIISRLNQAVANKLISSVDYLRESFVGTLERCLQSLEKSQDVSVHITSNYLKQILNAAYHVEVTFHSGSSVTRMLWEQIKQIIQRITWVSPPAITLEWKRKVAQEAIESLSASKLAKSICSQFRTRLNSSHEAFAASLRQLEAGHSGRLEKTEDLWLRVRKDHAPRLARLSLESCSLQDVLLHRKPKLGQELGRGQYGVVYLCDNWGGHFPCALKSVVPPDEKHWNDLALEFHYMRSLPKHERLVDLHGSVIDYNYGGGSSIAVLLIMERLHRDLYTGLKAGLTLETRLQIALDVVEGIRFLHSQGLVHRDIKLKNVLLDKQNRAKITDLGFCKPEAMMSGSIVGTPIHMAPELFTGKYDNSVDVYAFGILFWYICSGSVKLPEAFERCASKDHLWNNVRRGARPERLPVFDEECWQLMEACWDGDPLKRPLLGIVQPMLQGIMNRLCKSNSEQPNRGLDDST

[11] = target: G protein-coupled receptor kinase 5 (Homo sapiens) (UniProt P34947); assay: Inhibition of human GRK5 assessed as residual activity at 1 uM using casein as substrate in presence of 33P-ATP by ProQinase assay relative to control
[12] = target: Serine/threonine-protein kinase PAK 1 (Homo sapiens) (UniProt Q13153); assay: Inhibition of PAK1 (unknown origin) assessed as remaining activity at 1 uM by Kinome scan method relative to control
Chain of Serine/threonine-protein kinase PAK 1 (Homo sapiens) (Q13153 whole entry): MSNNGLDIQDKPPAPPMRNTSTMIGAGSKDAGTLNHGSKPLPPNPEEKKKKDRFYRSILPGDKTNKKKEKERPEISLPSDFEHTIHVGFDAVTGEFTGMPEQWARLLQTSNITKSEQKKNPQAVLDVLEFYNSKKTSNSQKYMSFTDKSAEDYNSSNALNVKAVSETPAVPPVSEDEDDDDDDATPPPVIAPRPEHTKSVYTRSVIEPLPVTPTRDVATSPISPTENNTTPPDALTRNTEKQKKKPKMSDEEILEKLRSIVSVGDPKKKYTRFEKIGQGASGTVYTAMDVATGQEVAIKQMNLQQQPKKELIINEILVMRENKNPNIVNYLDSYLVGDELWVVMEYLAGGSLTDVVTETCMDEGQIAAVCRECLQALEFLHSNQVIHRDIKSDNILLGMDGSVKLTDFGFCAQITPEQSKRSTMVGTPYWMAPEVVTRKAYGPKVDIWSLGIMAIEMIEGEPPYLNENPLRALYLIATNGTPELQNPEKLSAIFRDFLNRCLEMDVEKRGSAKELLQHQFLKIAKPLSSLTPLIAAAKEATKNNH

[13] = target: Tyrosine-protein kinase SYK (Homo sapiens) (UniProt P43405); assay: Inhibition of SYK (unknown origin) assessed as remaining activity at 1 uM by Kinome scan method relative to control
[14] = target: Serine/threonine-protein kinase haspin (Homo sapiens) (UniProt Q8TF76); assay: Inhibition of human GSG2 assessed as residual activity at 1 uM using histon H3 as substrate in presence of 33P-ATP by ProQinase assay relative to control
[15] = target: T2, Ephrin type-A receptor 3 (Homo sapiens) (UniProt P29320); assay: Inhibition of human EPHA3 assessed as residual activity at 1 uM using polyEY as substrate in presence of 33P-ATP by ProQinase assay relative to control
T2 sequence (whole entry): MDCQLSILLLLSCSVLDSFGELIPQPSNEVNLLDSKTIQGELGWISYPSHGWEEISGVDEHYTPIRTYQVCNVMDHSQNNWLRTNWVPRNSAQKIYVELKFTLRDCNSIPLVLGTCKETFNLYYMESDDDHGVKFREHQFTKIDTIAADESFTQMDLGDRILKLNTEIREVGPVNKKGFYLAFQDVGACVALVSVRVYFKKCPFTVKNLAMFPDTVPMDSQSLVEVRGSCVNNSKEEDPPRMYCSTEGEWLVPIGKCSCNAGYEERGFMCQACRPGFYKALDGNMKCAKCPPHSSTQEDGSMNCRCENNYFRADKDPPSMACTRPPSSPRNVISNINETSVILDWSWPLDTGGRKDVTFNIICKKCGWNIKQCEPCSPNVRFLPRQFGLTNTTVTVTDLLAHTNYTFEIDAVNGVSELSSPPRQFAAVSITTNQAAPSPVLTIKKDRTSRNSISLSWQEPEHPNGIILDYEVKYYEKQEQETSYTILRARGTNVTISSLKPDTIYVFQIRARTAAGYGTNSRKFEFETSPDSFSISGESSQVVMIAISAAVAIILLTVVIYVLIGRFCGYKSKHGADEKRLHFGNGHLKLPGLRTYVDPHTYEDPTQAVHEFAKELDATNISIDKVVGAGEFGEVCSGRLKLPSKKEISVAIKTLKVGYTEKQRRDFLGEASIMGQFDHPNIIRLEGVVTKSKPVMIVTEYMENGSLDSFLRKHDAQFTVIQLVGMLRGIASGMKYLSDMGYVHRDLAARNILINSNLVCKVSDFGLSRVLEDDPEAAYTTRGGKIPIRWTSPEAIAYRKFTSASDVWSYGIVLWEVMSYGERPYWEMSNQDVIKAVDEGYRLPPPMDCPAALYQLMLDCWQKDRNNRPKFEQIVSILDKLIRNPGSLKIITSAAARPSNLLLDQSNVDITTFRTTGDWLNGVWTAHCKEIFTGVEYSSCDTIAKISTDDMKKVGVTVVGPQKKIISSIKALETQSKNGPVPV

[16] = target: Serine/threonine-protein kinase 3 (Homo sapiens) (UniProt Q13188); assay: Inhibition of MST2 (unknown origin) assessed as remaining activity at 1 uM by Kinome scan method relative to control
Chain of Serine/threonine-protein kinase 3 (Homo sapiens) (Q13188 whole entry): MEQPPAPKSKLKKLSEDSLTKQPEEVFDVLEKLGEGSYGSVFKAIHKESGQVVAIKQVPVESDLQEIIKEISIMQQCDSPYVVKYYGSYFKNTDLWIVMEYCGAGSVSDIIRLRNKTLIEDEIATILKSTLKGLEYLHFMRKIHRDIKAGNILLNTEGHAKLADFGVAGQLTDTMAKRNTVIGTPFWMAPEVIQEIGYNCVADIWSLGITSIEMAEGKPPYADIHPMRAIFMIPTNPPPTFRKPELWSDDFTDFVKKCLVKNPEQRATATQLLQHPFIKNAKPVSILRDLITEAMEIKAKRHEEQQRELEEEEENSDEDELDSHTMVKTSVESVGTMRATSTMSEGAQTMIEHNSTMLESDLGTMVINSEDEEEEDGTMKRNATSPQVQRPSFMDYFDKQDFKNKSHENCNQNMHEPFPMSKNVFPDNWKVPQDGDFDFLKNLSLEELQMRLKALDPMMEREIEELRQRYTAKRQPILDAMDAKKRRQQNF

Chain of Casein kinase I isoform epsilon (Homo sapiens) (P49674 whole entry, looked up, canonical isoform): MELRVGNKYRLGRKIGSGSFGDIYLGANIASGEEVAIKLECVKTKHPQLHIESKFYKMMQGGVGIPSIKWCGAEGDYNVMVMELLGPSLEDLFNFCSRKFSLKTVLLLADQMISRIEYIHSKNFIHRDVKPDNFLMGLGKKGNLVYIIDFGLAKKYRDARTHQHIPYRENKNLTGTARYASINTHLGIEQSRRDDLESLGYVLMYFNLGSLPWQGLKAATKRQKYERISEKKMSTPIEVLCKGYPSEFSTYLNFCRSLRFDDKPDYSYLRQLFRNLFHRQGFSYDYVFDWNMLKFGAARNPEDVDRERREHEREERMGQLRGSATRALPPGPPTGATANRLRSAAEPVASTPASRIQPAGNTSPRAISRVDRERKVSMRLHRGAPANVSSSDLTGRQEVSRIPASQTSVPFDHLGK

Structure (SMILES): O=C1c2ccc(Nc3ccc(F)cc3F)cc2CCc2ccc(OC[C@H](O)CO)cc21 [Skepinone-L]
- Activity [1]: 100%
- Activity [2]: 93%
- Activity [3]: 100%
- Activity [4]: 107%
- Activity [5]: 97%
- Activity [6]: 93%
- Activity [7]: 96%
- Activity [8]: 100%
- Activity [9]: 86%
- Activity [10]: 95%
- Activity [11]: 121%
- Activity [12]: 100%
- Activity [13]: 100%
- Activity [14]: 82%
- Activity [15]: 107%
- Activity [16]: 100%
